System: a variety of test species
Assay: Post-emergence herbicidal activity
Type: in vivo
Set-up: key to ABUTH (Abutilon theophrasti) damage score / AMARE (Amaranthus retroflexus) damage score / ALOMY (Alopecurus myosuroides) damage score / ECHCG (Echinochloa crus-galli) damage score / ZEAMX (Zea mays) damage score / SOLNI (Solanum nigrum) damage score: 0 = no damage to plant, 5 = total damage to plant
Details: rate 1000 g/ha, evaluated after 13 days
Procedure: Seeds of a variety of test species were sown in standard soil in pots. After 8 days cultivation (post-emergence) under controlled conditions in a glasshouse (at 24/16° C., day/night; 14 hours light; 65% humidity), the plants were sprayed with an aqueous spray solution derived from the formulation of the technical active ingredient in acetone/water (50:50) solution containing 0.5% Tween 20 (polyoxyethelyene sorbitan monolaurate, CAS RN 9005-64-5). The test plants were then grown in a glasshouse under controlled conditions (at 24/16° C., day/night; 14 hours light; 65% humidity) and watered twice daily. After 13 days, the test was evaluated (5=total damage to plant; 0=no damage to plant, NC=not captured).

Row | Compound | ABUTH (Abutilon theophrasti) damage score | ALOMY (Alopecurus myosuroides) damage score | AMARE (Amaranthus retroflexus) damage score | ECHCG (Echinochloa crus-galli) damage score | SETFA (Setaria faberi) damage score | ZEAMX (Zea mays) damage score
1 | CCCC1=C(Cl)C(O)N(c2cc(C(F)(F)F)ccn2)C1=O (centres unmarked) [AA40] | 2 | 2 | 4 | 4 | 1 | 1
2 | CC(C)(C)C1=C(Cl)C(O)N(c2cc(C(F)(F)F)ccn2)C1=O (centres unmarked) [AA41] | 0 | 0 | 0 | 3 | 0 | 2
3 | CC(C)C1=C(Cl)C(O)N(c2cc(C(F)(F)F)ccn2)C1=O (centres unmarked) [AA42] | 3 | 1 | 3 | 0 | 0 | 1
4 | CCC1=C(Cl)C(O)N(c2cc(C(F)(F)F)ccn2)C1=O (centres unmarked) [AA43] | 2 | 1 | 2 | 5 | 3 | 1
5 | CC1=C(Cl)C(O)N(c2cc(C(C)(C)C)ccn2)C1=O (centres unmarked) [AA44] | 1 | 1 | 3 | 1 | 2 | 1
6 | CC1=C(Cl)C(O)N(c2cc(C(F)(F)F)c(C(=O)OC(C)(C)C)cn2)C1=O (centres unmarked) [AA45] | 2 | 2 | 3 | 1 | 2 | 1
7 | CC1=C(Cl)C(O)N(c2cc(C(F)(F)F)c(C(=O)NC(C)(C)C)cn2)C1=O (centres unmarked) [AA46] | 5 | 3 | 5 | 3 | 3 | 0
8 | CCOC(=O)c1cnc(N2C(=O)C(C)=C(Cl)C2O)cc1Cl (centres unmarked) [AA47] | 1 | 1 | 0 | 2 | 3 | 1
9 | CC1=C(Cl)C(O)N(c2cc(C)c(-c3ccsc3)cn2)C1=O (centres unmarked) [AA48] | 4 | 1 | 5 | 3 | 4 | 0
10 | CC1=C(Cl)C(O)N(c2cc(C(C)C)c(C(=O)NC(C)(C)C)cn2)C1=O (centres unmarked) [AA49] | 3 | 2 |  | 1 | 3 | 0
11 | CCc1cc(N2C(=O)C(C)=C(Cl)C2O)ncc1Br (centres unmarked) [AA50] | 3 | 2 | 2 | 3 | 3 | 1
12 | CC1=C(Br)C(O)N(c2cc(C(F)(F)F)ccn2)C1=O (centres unmarked) [AB1] | 3 | 2 | 5 | 3 | 4 | 0
